Source: US10786505B2, “Administration of NEDD8-activating enzyme inhibitor and chemotherapeutic agents” (Millennium Pharmaceuticals, Inc., priority 2013, dated 2020)

Legend:
Type in all cases: in vivo, mice
[1] = test system: PHTX02B breast xenograft model; test: Combination of docetaxel and MLN4924 in PHTX02B xenograft model; details: for average tumor volume day 21: PHTX02B xenograft
Text: The PHTX02B breast xenograft model was established from a patient-derived tumor collected during surgery from a person with invasive ductal carcinoma classified as triple negative breast cancer (ER−/PR−/Her2−) by IHC. PHTX02B tumor fragments (approximately 2×2×3 mm^3) are implanted into the subcutaneous space in the right dorsal flank of female SCID-NOD mice (age 5-7 weeks, Jackson Laboratory, Bar Harbor, Me.) using a 13-gauge trocar.
(§1) Docetaxel (Henry Schein, Inc., Pittsburgh Pa., Qilu Pharmaceutical Co., Ltd., Jinan, Shandong, China, and Sanofi-Aventis) is formulated in 0.9% saline and administered by intravenous injection (IV) once weekly (QW) at 5 mg/kg or 10 mg/kg.
(§2) Tumors are measured twice weekly using a vernier caliper. Tumor volumes are calculated using standard procedures (0.5×(length×width^2)). […] Tumor size and body weight are measured approximately twice a week for the duration of the study. Mice are euthanized when their tumor volume reached 10% of their body weight, or when the average tumor volume of a treatment or control group reached approximately 2000 mm^3. Tumor growth continued to be monitored after the dosing period in some studies. Average tumor volume is reported as a function of time for selected groups of selected studies in Figures A, B, and C.
(§3) Measurements from day 0 to 18, 21 or 22 are analyzed as specified in Tables 4-9. All tumor volumes have a value of 1 added to them before log10 transformation. For each animal, the log tumor volume at day 0 is subtracted from the log tumor volume on the subsequent days. This difference vs. time is used to calculate an area under the curve (AUC) for each animal using the trapezoid rule. […] The synergy score for the combination of agents A and B is defined as 100*(mean(AUCAB)−mean(AUCA)−mean(AUCB)+mean(AUCctl))/mean(AUCctl): where AUCAB, AUCA, AUCB, and AUCctl are the AUC values for animals in the combination group, the A group, the B group, and the control group, respectively. The standard error of the synergy score is computed based on the variation in the AUC values among the animals. […] If the P-value is above 0.05, then the combination is considered to be additive. If the P-value is below 0.05, and the synergy score is less than zero, then the combination is considered to be synergistic. […] Otherwise, the combination is classified as antagonistic.

[2] = test system: LU1143 xenograft model; test: Combination of docetaxel or carboplatin and MLN4924 in LU1143 xenograft model; details: 45 mg/kg MLN4924 BID SC
Procedure: as §1
(§4) Carboplatin (CARBOplatin Injection, Hospira, Inc., Qilu Pharmaceutical Co., Ltd. Jinan, Shandong, China, and Teva Gry-Pharma GmbH, Ulm, Germany) is formulated in 0.9% saline and administered by IP injection once weekly (QW) at 50 mg/kg. The once weekly schedule is also described as every 7 days (Q7D).
as §2
Measurements from day 0 to 18, 21 or 22 are analyzed as specified in Tables 4-9. All tumor volumes have a value of 1 added to them before log10 transformation. For each animal, the log tumor volume at day 0 is subtracted from the log tumor volume on the subsequent days. This difference vs. time is used to calculate an area under the curve (AUC) for each animal using the trapezoid rule. […] The synergy score for the combination of agents A and B is defined as 100*(mean(AUCAB)−mean(AUCA)−mean(AUCB)+mean(AUCctl))/mean(AUCctl): where AUCAB, AUCA, AUCB, and AUCctl are the AUC values for animals in the combination group, the A group, the B group, and the control group, respectively. The standard error of the synergy score is computed based on the variation in the AUC values among the animals. […] If the P-value is above 0.05, then the combination is considered to be additive. […]

[3] = test system: PHTX02B xenograft model; test: Combination of gemcitabine and MLN4924 in PHTX02B xenograft model
Procedure: (§5) The PHTX02B breast xenograft model was established from a patient-derived tumor collected during surgery from a person with invasive ductal carcinoma classified as triple negative breast cancer (ER-/PR-/Her2-) by IHC. […] Gemcitabine (Gemzar, Henry Schein, Inc, Pittsburgh Pa., and Myoderm Medical, Norristown, Pa.) is formulated in 0.9% saline and administered by intraperitoneal injection (IP) q3Dx4 (every 3 days for a total of 4 doses) at 2.5 mg/kg or 10 mg/kg, or by IV injection twice weekly (BIW) at 20 mg/kg IVU. […] Tumors are measured twice weekly using a vernier caliper. […] Tumor size and body weight are measured approximately twice a week for the duration of the study. […] Tumor growth continued to be monitored after the dosing period in some studies. […] Average tumor volume is reported as a function of time for selected groups of selected studies in Figures A, B, and C. Measurements from day 0 to 18, 21 or 22 are analyzed as specified in Tables 4-9. […] For each animal, the log tumor volume at day 0 is subtracted from the log tumor volume on the subsequent days. This difference vs. time is used to calculate an area under the curve (AUC) for each animal using the trapezoid rule. In instances when an animal in a treatment group is removed early from the study, the last observed tumor value is carried forward through all subsequent time points. […] The standard error of the synergy score is computed based on the variation in the AUC values among the animals. […] Otherwise, the combination is classified as antagonistic.

[4] = test system: PHTX249Pa xenograft model; test: Combination of gemcitabine and MLN4924 in PHTX249Pa xenograft model
Procedure: as §5, with “PHTX249 Pa pancreatic” for “PHTX02B breast”, “pancreatic adenocarcinoma.” for “invasive ductal carcinoma classified as triple negative breast cancer (ER-/PR-/Her2-) by IHC.”

[5] = test system: NCI-H69 xenograft model; test: Combination of carboplatin and MLN4924 in NCI-H69 xenograft model
Procedure: (§6) NCI-H69 or NCI-H82 small cell lung tumor fragments (30- to 40-mg) are implanted into the subcutaneous space in the area of the right flank of NCr nu/nu mice (7-10 weeks, Charles River Laboratories, Inc, Frederick Md. or Wilmington, Mass.) using a 12-gauge trocar.
as §4, §2, §3

[6] = test system: NCI-H69 xenograft model; test: Combination of cisplatin and MLN4924 in NCI-H69 xenograft model
Procedure: as §6, §2, §3

Compound: NS(=O)(=O)OC[C@@H]1C[C@@H](n2ccc3c(N[C@H]4CCc5ccccc54)ncnc32)C[C@@H]1O [MLN4924, ((1S,2S,4R)-4-(4-((1S)-2,3-dihydro-1H-inden-1-ylamino)-7H-pyrrolo[2,3-d]-pyrimidin-7-yl)-2-hydroxycyclopentyl)methyl sulfamate]
- tumor growth during the treatment period (in words) ([1]; PHTX02B breast xenograft, FIG. 1, MLN4924 SC 60 mg/kg BID 5 days on/5 days off, docetaxel 5 mg/kg IV QW, single agents or their combination): inhibited tumor growth compared to the control vehicle group
- average tumor volume day 21 ([1]; 30 mg/kg MLN4924 BID 5 on/5 off SC): 1110.9 mm^3
- average tumor volume day 21 ([1]; 30 mg/kg MLN4924 BID SC): 894.4 mm^3
- average tumor volume day 21 ([1]; 60 mg/kg MLN4924 BID 5 on/5 off SC): 532.2 mm^3
- average tumor volume day 21 [2]: 801.2 mm^3
- average tumor volume day 22 ([3]; 30 mg/kg MLN4924 BID SC): 647.4 mm^3
- tumor growth during the treatment period (in words) ([3]; FIG. 2, MLN4924 SC 30 mg/kg BID, gemcitabine 10 mg/kg IP q3dx4, single agents or their combination): inhibited tumor growth compared to the control vehicle group
- average tumor volume day 18 ([4]; PHTX249Pa xenograft, 90 mg/kg MLN4924 BID BIW SC): 1748.9 mm^3
- tumor growth compared to the control vehicle group (in words) ([4]; PHTX249 Pa xenograft, gemcitabine 20 mg/kg IV BIW, MLN4924 90 mg/kg SC BID BIW, single agents or their combination): did not show growth inhibition compared to the control vehicle group
- average tumor volume day 21 ([5]; 60 mg/kg MLN4924 BID Q3D x 2/week SC): 597.1 mm^3
- average tumor volume day 21 ([5]; 120 mg/kg MLN4924 BID Q3D x 2/week SC): 415.2 mm^3
- tumor growth during the treatment period (in words) ([5]; FIG. 3, MLN4924 SC 120 mg/kg BID Q3Dx2/week, carboplatin 50 mg/kg IP QW, single agents or their combination): inhibited tumor growth compared to the control vehicle group
- average tumor volume day 22 ([6]; 45 mg/kg MLN4924 BID Q3Dx2/week SC): 438.5 mm^3
- average tumor volume day 22 ([6]; 60 mg/kg MLN4924 BID Q2Dx3/week SC): 475.4 mm^3
